# Patent US6673799B1, “Cyanophenyl derivative” (priority 1998, dated 2004)
# Biological target: T1, rat androgen receptor (Rattus norvegicus, UniProt P15207)
# T1 construct: The cytosol fraction obtained in the step (1) was adjusted to a protein concentration of 1 mg/ml and used as a rat androgen receptor solution; from tissue; host or cells: rat ventral prostate gland cytosol fraction (male Wistar rats, castrated)
# T1 sequence (P15207 1-902): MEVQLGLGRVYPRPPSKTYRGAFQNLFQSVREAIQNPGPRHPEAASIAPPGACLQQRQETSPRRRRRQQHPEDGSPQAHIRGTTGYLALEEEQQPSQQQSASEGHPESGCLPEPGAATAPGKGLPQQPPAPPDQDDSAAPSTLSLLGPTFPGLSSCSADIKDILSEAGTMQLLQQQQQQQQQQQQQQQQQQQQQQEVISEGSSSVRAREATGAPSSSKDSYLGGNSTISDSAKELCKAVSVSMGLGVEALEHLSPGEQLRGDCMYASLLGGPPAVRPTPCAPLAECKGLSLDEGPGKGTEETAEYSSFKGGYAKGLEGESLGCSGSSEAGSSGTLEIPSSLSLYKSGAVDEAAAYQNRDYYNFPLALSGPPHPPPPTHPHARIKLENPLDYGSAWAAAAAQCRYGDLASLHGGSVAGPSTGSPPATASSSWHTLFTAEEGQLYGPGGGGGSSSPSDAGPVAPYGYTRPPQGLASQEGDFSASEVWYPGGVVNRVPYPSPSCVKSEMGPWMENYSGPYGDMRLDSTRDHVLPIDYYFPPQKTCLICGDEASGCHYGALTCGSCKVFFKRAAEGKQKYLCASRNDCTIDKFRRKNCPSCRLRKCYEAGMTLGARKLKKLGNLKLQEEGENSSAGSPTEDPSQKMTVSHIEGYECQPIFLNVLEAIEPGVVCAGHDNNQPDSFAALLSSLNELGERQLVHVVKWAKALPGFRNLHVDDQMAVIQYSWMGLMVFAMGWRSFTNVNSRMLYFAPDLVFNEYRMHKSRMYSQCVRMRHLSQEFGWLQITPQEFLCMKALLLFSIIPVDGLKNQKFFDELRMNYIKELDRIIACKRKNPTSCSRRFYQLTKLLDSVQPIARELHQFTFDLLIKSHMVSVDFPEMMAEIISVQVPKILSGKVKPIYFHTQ
# Assay: biochemical
# Conditions: 3H-mibolerone 1 nM, rat prostate cytosol; Ki calculated from IC50 by Cheng and Prusoff; read-out: Binding activity for rat androgen receptor (Ki = nM)
row,SMILES,Ki [nM]
1,"COc1ccc(NC(=O)N2C[C@H](C)N(c3ccc(C#N)c(C(F)(F)F)c3)C[C@H]2C)cn1 [Example 6-13, (2R,5S)-4-(4-Cyano-3-trifluoromethylphenyl)-N-(6-methoxy-3-pyridyl)-2,5-dimethylpiperazine-1-carboxamide]",3.58
2,"C[C@@H]1CN(c2ccc(C#N)c(C(F)(F)F)c2)[C@@H](C)CN1C(=O)Nc1ccnc(N)n1 [Example 21, (2R,5S)-N-(2-Amino-pyrimidin-4-yl)-4-(4-cyano-3-trifluoromethylphenyl)-2,5-dimethylpiperazine-1-carboxamide]",1.81
3,"C[C@@H]1CN(c2ccc(C#N)c(C(F)(F)F)c2)[C@@H](C)CN1C(=O)Nc1ccc(C#N)nc1 [Example 18-7, (2R,5S)-N-(6-Cyano-3-pyridyl)-4-(4-cyano-3-trifluoromethylphenyl)-2,5-dimethylpiperazine-1-carboxamide]",6.66
4,"C[C@@H]1CN(c2ccc(C#N)c(C(F)(F)F)c2)[C@@H](C)CN1C(=O)Nc1ccnc(F)c1 [Example 18-8, (2R,5S)-4-(4-Cyano-3-trifluoromethylphenyl)-N-(2-fluoro-4-pyridyl)-2,5-dimethylpiperazine-1-carboxamide]",15.6
5,"C[C@@H]1CN(c2ccc(C#N)c(C(F)(F)F)c2)[C@@H](C)CN1C(=O)Nc1ccnc(Br)c1 [Example 6-1, (2R,5S)-N-(2-Bromo-4-pyridyl)-4-(4-cyano-3-trifluoromethylphenyl)-2,5-dimethylpiperazine-1-carboxamide]",7.56
6,"CNC(=O)c1cc(NC(=O)N2C[C@H](C)N(c3ccc(C#N)c(C(F)(F)F)c3)C[C@H]2C)ccn1 [Example 13-1, (2R,5S)-4-(4-Cyano-3-trifluoromethylphenyl)-2,5-dimethyl-N-(2-methylcarbamoyl-4-pyridyl)piperazine-1-carboxamide]",1.91

# Test system: not given
# Assay: not given
# Conditions: not given
row,SMILES,melting point [°C]
1,C[C@@H]1CN(c2ccc(C#N)c(C(F)(F)F)c2)[C@@H](C)CN1C(=O)N1CC[S+]([O-])CC1 (relative stereo),173 to 175
2,CC(=O)Nc1nccc(NC(=O)N2C[C@@H](C)N(c3ccc(C#N)c(C(F)(F)F)c3)C[C@@H]2C)n1 (racemic),191 to 193
3,"COc1ccc(NC(=O)N2C[C@H](C)N(c3ccc(C#N)c(C(F)(F)F)c3)C[C@H]2C)cn1 [Example 6-13, (2R,5S)-4-(4-Cyano-3-trifluoromethylphenyl)-N-(6-methoxy-3-pyridyl)-2,5-dimethylpiperazine-1-carboxamide]",184 to 185
4,C[C@@H]1CN(C(=O)Nc2ccc(F)cc2)[C@@H](C)CN1c1ccc(C#N)c(C(F)(F)F)c1 (relative stereo),200 to 203
5,"C[C@@H]1CN(c2ccc(C#N)c(C(F)(F)F)c2)[C@@H](C)CN1C(=O)Nc1ccc(C#N)nc1 [Example 18-7, (2R,5S)-N-(6-Cyano-3-pyridyl)-4-(4-cyano-3-trifluoromethylphenyl)-2,5-dimethylpiperazine-1-carboxamide]",220 to 222
6,C[C@@H]1CN(C(=O)NC(C)(C)c2ccccc2)[C@@H](C)CN1c1ccc(C#N)c(C(F)(F)F)c1 (relative stereo),152.5 to 153.5
7,C[C@@H]1CN(C(=O)Nc2ccnc(N)c2)[C@@H](C)CN1c1ccc(C#N)c(C(F)(F)F)c1 (racemic),208 to 211
8,CC1(C)CN(c2ccc(C#N)c(C(F)(F)F)c2)CN1C(=O)Nc1ccc(F)cc1,199 to 200
9,C[C@@H]1CN(c2ccc(C#N)c(C(F)(F)F)c2)[C@@H](C)CN1C(=O)Nc1ccc(F)nc1,163 to 165
